Experimental data taken from patent US11649475B2, “Dioxetane compounds and their use for the detection of microorganisms” (NEMIS Technologies AG, priority 2018, dated 2023).

How the values were obtained:
[1] = tested on: phosphatidylinositol-specific phospholipase C (PI-PLC); experiment: Enzymatic assay of PI-PLC activity with Compound IIIa; type: biochemical; conditions: for RLU: PBS pH 7.4, 1% v/v DMSO
Protocol: Varying concentrations of phosphatidylinositol-specific phospholipase C (PI-PLC) were added and luminescence was recorded at room temperature (Table 4). Assays were performed in a white microtiter plate with 0.25 mL total liquid volume.

[2] = tested on: Listeria monocytogenes ATCC 7644; experiment: Luminescence of culture samples after addition of Compound IIIa; type: cell-based; conditions: L.m. 1, inoculation density 10^5 CFU/mL, 6 h cultivation, 10 μM
Protocol: (§1) Similar cell concentrations of all strains were inoculated in triplicate test tubes with M52 broth. In addition, further dilutions of L.m. 2 cells in sterile saline were inoculated in triplicate test tubes. Sterile saline was added to negative control tubes. […] Final concentration of Compound IIIa was 10 μM, final concentration of dimethyl sulfoxide was 1% v/v. Light emission was recorded with a plate reader equipped with a luminescence detection system. […] It was possible to detect 10^3 CFU/mL of Listeria monocytogenes after 6 h of incubation as indicated by a signal-to-noise ratio of 2 relative to sterile controls.

[3] = tested on: Listeria monocytogenes (4b) ATCC 19115; experiment: as above; type: cell-based; conditions: 6 h cultivation, 10 μM; for Mean RLU (n = 3): 16-20 min after addition
Protocol: as §1

[4] = tested on: Listeria innocua (6a) ATCC 33090; experiment: as above; type: cell-based; conditions: L.i., inoculation density 10^5 CFU/mL, 6 h cultivation, 10 μM
Protocol: as §1

[5] = tested on: Escherichia coli ATCC 25922; experiment: as above; type: cell-based; conditions: E.c., inoculation density 10^5 CFU/mL, 6 h cultivation, 10 μM
Protocol: as §1

pig liver esterase = experiment: Enzymatic assay of pig liver esterase activity with Compound IIa; conditions: 62.5 μM, PBS pH 7.4, 10% v/v DMSO, 20 min measurement period
Protocol: The assay mix was pre-incubated for 20 min at room temperature, then 1:5 v/v of pig liver esterase solutions containing varying enzyme concentrations were added and luminescence was recorded for 20 min at room temperature with a SpectraMax M5 reader in luminescence mode. Assays were performed in a black microtiter plate with a total liquid volume of 0.25 mL.

[6] = tested on: Citrobacter freundii ATCC 8090; experiment: Luminescence of culture samples after addition of Compound IIa; type: cell-based; conditions: C.f., inoculation density 10^5 CFU/mL, 6 h cultivation, 10 μM
Text: (§2) Citrobacter freundii ATCC 8090 (C.f., […] negative), Escherichia coli ATCC 25922 (E.c., […] negative), Salmonella Typhimurium (D) ATCC […]., Salmonella enterica ssp. I ser. Typhimurium, […] positive), Salmonella Enteritidis (D) ATCC […]. 1, Salmonella enterica ssp. enterica ser. Enteritidis, […] positive) and Salmonella Enteritidis RKI 05/[…]. 2, Salmonella enterica ssp. enterica ser. […] Similar cell concentrations of all strains were inoculated in triplicate test tubes with Nutrient Broth. […] Sterile saline was added to negative control tubes. […] Final concentration Compound IIa was 10 μM, final concentration of dimethyl sulfoxide was […]. Light emission was recorded with a plate reader equipped with a luminescence detection system.

[7] = tested on: Escherichia coli ATCC 25922; experiment: as above; type: cell-based; conditions: E.c., inoculation density 10^5 CFU/mL, 6 h cultivation, 10 μM
Text: as §2

[8] = tested on: Salmonella Enteritidis RKI 05/07992; experiment: Limit of detection of Salmonella enterica, Compound IIa versus MUCAP; type: cell-based; conditions: Compound IIa 10 μM versus MUCAP 0.1 mM, PBS, 15% DMSO
Protocol: Salmonella Enteritidis RKI 05/07992 was cultivated in Nutrient Broth (5 g/I peptone, 5 g/l NaCl, 2 g/L yeast extract, 1 g/l beef extract, pH 7.4) for 20 h (37° C., 150 rpm) and then serially diluted in phosphate buffered saline. Cell suspensions were mixed 1:1 v/v with phosphate buffered saline containing dimethyl sulfoxide (final concentration in assay 15%) and either Compound IIa (final concentration 10 μM) or 4-Methylumbelliferyl caprylate (MUCAP, final concentration 0.1 mM). Assays were performed in microplates, total liquid volume was 0.2 mL. Light emission and fluorescence (excitation 360 nm, emission 455 nm) were recorded with a SpectraMax M5 (Molecular Devices, Sunnyvale, Calif., USA) plate reader. Cell concentration of undiluted culture was estimated from optical density (600 nm).

[9] = tested on: Salmonella Typhimurium (D) ATCC 14028; experiment: Luminescence of culture samples after addition of Compound IIa; type: cell-based, Salmonella enterica ssp. I ser. Typhimurium; conditions: S.T., inoculation density 10^5 CFU/mL, 6 h cultivation, 10 μM
Text: as §2

[10] = tested on: Salmonella Enteritidis (D) ATCC 13076; experiment: as above; type: cell-based, Salmonella enterica ssp. enterica ser. Enteritidis; conditions: S.E. 1, inoculation density 10^5 CFU/mL, 6 h cultivation, 10 μM
Text: as §2

[11] = tested on: Salmonella Enteritidis RKI 05/07992; experiment: as above; type: cell-based, Salmonella enterica ssp. enterica ser. Enteritidis; conditions: for Signal to noise ratio (to sterile) / Mean RLU (n = 3): 6 h cultivation, 10 μM; for Mean RLU (n = 3): 27-30 min after addition
Text: as §2

glucose = experiment: Detection of glucose in Escherichia coli culture supernatant with compound VIa and glucose oxidase; type: biochemical; conditions: 40 μM compound VIa in HEPES buffer pH 7.0, 1 mg/mL glucose oxidase, 20 min
Protocol: Cells were separated from culture supernatant by centrifugation (13'000×g, 2 min). […] A second negative control also contained 5 mM glucose, but no glucose oxidase. Culture supernatant with and without glucose (0.1 mL) was mixed in a white microtiter plate with 0.1 mL of HEPES buffer (100 mM, pH 7.0) containing 40 μM of compound VIa, reacting with hydrogen peroxide) and 1 mg/mL commercially available glucose oxidase from Aspergillus niger. […] Presence of glucose lead to continuously increasing luminescence when compound Via and glucose oxidase were also present.

[12] = tested on: Methicillin-resistant Staphylococcus aureus ATCC 33592 (MRSA); experiment: Luminescence development in cultures with and without oxacillin, Compound IVa; type: cell-based; conditions: oxacillin 20 mg/L, 6 h, 10 μM compound IVa as indicator
Protocol: (§3) Methicillin-resistant Staphylococcus aureus ATCC 33592 (MRSA), a strain which is resistant to penicillin derivatives such as methicillin and oxacillin, and methicillin-susceptible Staphylococcus aureus ATCC 29213 (MSSA) were cultivated overnight at 37° C. in nutrient broth (5 g/L peptone, 5 g/L sodium chloride, 2 g/L yeast extract, 1 g/L meat extract, pH 7.4) and diluted in sterile saline. MRSA and MSSA strains were inoculated at approx. 10^6 CFU/mL in nutrient broth containing compound IVa at a final concentration of 10 μM. For each strain, one culture was supplemented with oxacillin (20 mg/L final concentration) and one culture was left without antibiotics. Tube cultures were incubated at 37° C. and 150 rpm. A sterile control (nutrient broth with 10 μM of compound IVa) was incubated in parallel. Luminescence of culture samples (0.2 mL in a white microtiter plate) was recorded at regular intervals for 6 h with a SpectraMax M5 plate reader (FIG. 4: Luminescence development in cultures of MRSA and MSSA in the presence and absence of the antibiotic oxacillin). […] Growing and non-growing cultures could be distinguished after 1 h of incubation.

[13] = tested on: methicillin-susceptible Staphylococcus aureus ATCC 29213 (MSSA); experiment: as above; type: cell-based; conditions: oxacillin 20 mg/L, 6 h, 10 μM compound IVa as indicator
Protocol: as §3

[14] = L.m. 2, inoculation density 10^2 CFU/mL
[15] = L.m. 2, inoculation density 10^3 CFU/mL
[16] = L.m. 2, inoculation density 10^4 CFU/mL
[17] = L.m. 2, inoculation density 10^5 CFU/mL
[18] = S.E. 2, inoculation density 10^1 CFU/mL
[19] = S.E. 2, inoculation density 10^2 CFU/mL
[20] = S.E. 2, inoculation density 10^3 CFU/mL
[21] = S.E. 2, inoculation density 10^4 CFU/mL
[22] = S.E. 2, inoculation density 10^5 CFU/mL

Structure (SMILES): COC(=O)/C=C/c1ccc(C2(OC)OOC23C2CC4CC(C2)CC3C4)c(Cl)c1OCc1ccc(OP(=O)(O)O[C@@H]2[C@H](O)[C@H](O)[C@@H](O)[C@H](O)[C@H]2O)cc1 (some centres unmarked) [Compound IIIa]
- Signal to noise ratio ([1]; PI-PLC added 5 · 10^−1 U/mL): 862
- RLU ([1]; PI-PLC added 5 · 10^−1 U/mL, 10 μM): 60265 RLU
- Signal to noise ratio ([1]; PI-PLC added 5 · 10^−2 U/mL): 512
- RLU ([1]; PI-PLC added 5 · 10^−2 U/mL, 10 μM): 35822 RLU
- Signal to noise ratio ([1]; PI-PLC added 5 · 10^−3 U/mL): 148
- RLU ([1]; PI-PLC added 5 · 10^−3 U/mL, 10 μM): 10369 RLU
- Signal to noise ratio ([1]; PI-PLC added 5 · 10^−4 U/mL): 17
- RLU ([1]; PI-PLC added 5 · 10^−4 U/mL, 10 μM): 1191 RLU
- Signal to noise ratio (to sterile) [2]: 832
- Mean RLU (n = 3) ([2]; 16-20 min after addition): 11913 RLU
- Signal to noise ratio (to sterile) [3, 14]: 0.9
- Mean RLU (n = 3) [3, 14]: 12 RLU
- Signal to noise ratio (to sterile) [3, 15]: 2.2
- Mean RLU (n = 3) [3, 15]: 31 RLU
- Signal to noise ratio (to sterile) [3, 16]: 17
- Mean RLU (n = 3) [3, 16]: 242 RLU
- Signal to noise ratio (to sterile) [3, 17]: 716
- Mean RLU (n = 3) [3, 17]: 10258 RLU
- Signal to noise ratio (to sterile) [4]: 2.3
- Mean RLU (n = 3) ([4]; 16-20 min after addition): 33 RLU
- Signal to noise ratio (to sterile) [5]: 0.5
- Mean RLU (n = 3) ([5]; 16-20 min after addition): 7 RLU

Structure (SMILES): CCCCCCCC(=O)Oc1ccc(COc2c(/C=C/C(=O)O)ccc(C3(OC)OOC34C3CC5CC(C3)CC4C5)c2Cl)cc1 (centres unmarked) [Compound IIa]
- relation of PI-PLC concentration and maximal RLU ([1]; 10 μM, 20 min measurement period): positive correlation over two orders of magnitude
- relation of pig liver esterase concentration and maximal RLU (pig liver esterase): positive linear correlation over two orders of magnitude
- Signal to noise ratio (to sterile) [6]: 12
- Mean RLU (n = 3) ([6]; 27-30 min after addition): 6480 RLU
- Signal to noise ratio (to sterile) [7]: 6
- Mean RLU (n = 3) ([7]; 27-30 min after addition): 3504 RLU
- limit of detection for Salmonella enterica, lower than with MUCAP [8]: 625 fold
- Signal to noise ratio (to sterile) [9]: 283
- Mean RLU (n = 3) ([9]; 27-30 min after addition): 228202 RLU
- Signal to noise ratio (to sterile) [10]: 408
- Mean RLU (n = 3) ([10]; 27-30 min after addition): 158262 RLU
- Signal to noise ratio (to sterile) [11, 18]: 2
- Mean RLU (n = 3) [11, 18]: 1041 RLU
- Signal to noise ratio (to sterile) [11, 19]: 9
- Mean RLU (n = 3) [11, 19]: 5100 RLU
- Signal to noise ratio (to sterile) [11, 20]: 72
- Mean RLU (n = 3) [11, 20]: 40236 RLU
- Signal to noise ratio (to sterile) [11, 21]: 275
- Mean RLU (n = 3) [11, 21]: 154011 RLU
- Signal to noise ratio (to sterile) [11, 22]: 693
- Mean RLU (n = 3) [11, 22]: 387911 RLU
- detectable inoculation density of Salmonella Enteritidis ([11]; after 6 h of incubation, signal-to-noise ratio of 2 relative to sterile controls): 10 CFU/mL

Structure (SMILES): COC1(c2ccc(/C=C/C(=O)O)c(B3OC(C)(C)C(C)(C)O3)c2)OOC12C1CC3CC(C1)CC2C3 (centres unmarked) [VIa]
- rate of increase of luminescence (glucose): positive correlation with the glucose concentration

Structure (SMILES): Cc1onc(-c2ccccc2)c1C(=O)N[C@@H]1C(=O)N2[C@@H]1SC(C)(C)[C@@H]2C(=O)O [oxacillin]
- growth by time course of luminescence intensity [12]: multiplied both in the presence and the absence of oxacillin
- growth by time course of luminescence intensity [13]: showed an increase in luminescence only in the antibiotic-free culture
